This assay addresses human dopamine transporter (hDAT) (Homo sapiens, UniProt Q01959). Nature of the assay: cell-based. The format is cell-based. To be noted: for Relative persistent current (Ip relative to Io) after washout: as a function of concentration, Ip current remaining after washout before block with cocaine; for Depolarizing current: data not shown.
[1] abbreviates: Hill fit of dose-response normalized to 10 μM DA, −60 mV.
Where [2] appears, read: ability to generate a persistent current at 10 μM and −60 mV.

12 compounds from publication PMC5875417 (ACS chemical neuroscience, 2015) can be followed below.

Several values for one entry are separate records, joined by “and”; a condition that tells them apart may be missing. Equal entries are not always repeated. Where two headings read alike, the source gives them in different places.

Chain of human dopamine transporter (hDAT) (Q01959 whole entry): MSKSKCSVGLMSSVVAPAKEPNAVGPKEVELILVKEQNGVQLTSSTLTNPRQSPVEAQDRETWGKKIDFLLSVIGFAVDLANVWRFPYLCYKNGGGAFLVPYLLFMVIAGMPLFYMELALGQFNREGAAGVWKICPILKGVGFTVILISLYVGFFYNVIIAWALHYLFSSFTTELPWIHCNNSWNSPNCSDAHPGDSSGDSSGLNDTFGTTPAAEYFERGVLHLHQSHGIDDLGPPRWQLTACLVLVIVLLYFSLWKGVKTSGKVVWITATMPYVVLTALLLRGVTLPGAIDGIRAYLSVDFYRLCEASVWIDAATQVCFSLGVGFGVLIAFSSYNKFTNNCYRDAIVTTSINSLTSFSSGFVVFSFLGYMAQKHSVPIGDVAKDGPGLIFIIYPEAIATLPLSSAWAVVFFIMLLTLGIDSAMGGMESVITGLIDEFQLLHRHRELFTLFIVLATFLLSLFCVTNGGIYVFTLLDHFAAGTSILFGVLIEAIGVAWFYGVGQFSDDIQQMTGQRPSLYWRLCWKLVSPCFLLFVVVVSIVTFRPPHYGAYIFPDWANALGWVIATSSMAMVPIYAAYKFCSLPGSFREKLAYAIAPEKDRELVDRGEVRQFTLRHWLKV

`C[C@H](N)Cc1ccc(O)cc1.Cl` [S(+) α-Me 3-des-OH DA (S6), S(+)-1-(4-Hydroxyphenyl)-2-aminopropane hydrochloride]: the “Recovery time constant T50 upon removal of compound, compared to DA” value (10 μM, −60 mV, normalized to 10 μM DA in same cell) was “no significant differences”. The Hill coefficients under setting [1] was found to be 0.49 ± 0.05. The “Persistent Current” value under setting [2] is recorded as “No”. The “Relative persistent current (Ip relative to Io) after washout” value (“Relative persistent current” below) (−60 mV) is on record as “much lower persistent current than S(+)AMPH (S1)”.

For the compound `C[C@@H](N)Cc1ccc(O)cc1.Cl` [R(−) α-Me 3-des-OH DA (R6), R(–)-1-(4-Hydroxyphenyl)-2-aminopropane hydrochloride], under setting [1], the Hill coefficients stood at 0.98 ± 0.08. Besides, the “Persistent Current” value under setting [2] was “No”. Also, the “Relative persistent current” value (−60 mV) is given as “much lower persistent current than S(+)AMPH (S1)”.

For the compound `Cl.NCCc1ccc(O)cc1` [3-des-OH DA (3), 2-(4-Hydroxyphenyl)-1-aminoethane hydrochloride], the Hill coefficients came out at 0.91 ±0.08; the “Persistent Current” value is “no pronounced persistent current and No”. Further, where the note is “EC50”, the half-maximal effective concentration (EC50) is 1450 nM and 1430 nM.

As for `COc1ccc(CCN)cc1` [compound 8, 2-(4-Methoxyphenyl)-1-aminoethane], the Depolarizing current entry (10 μM) is “comparatively small depolarizing currents”.

Turning to `COC(=O)[C@H]1C(c2ccc(I)cc2)C[C@@H]2CC[C@H]1N2C` (stereo partly shown) [RTI-55, reference compound], the “Block of S(+)AMPH-induced initial peak current and persistent current” value (10 μM RTI-55, −60 mV) is reported as “blocked”.

Regarding `NCCc1ccc(O)c(O)c1` [DA (2), dopamine, reference compound], the Hill coefficients stood at 1.32 ±0.07, the “Persistent Current” value was “No” and the “Rank order of efficacy” value is “S(+)AMPH > DA > R(−)AMPH”.

With `COC(=O)[C@H]1[C@@H](OC(=O)c2ccccc2)C[C@@H]2CC[C@H]1N2C` [Cocaine, reference compound], the “Block of induced currents through hDAT” value is “blocks the DA- and R(−)AMPH-induced initial currents”.

Take `Br.C[C@H](N)Cc1ccc(O)c(O)c1` [S(+) α-Me DA (S7), S(+)-1-(3,4-Dihydroxyphenyl)-2-aminopropane hydrobromide]: the Hill coefficients under setting [1] turned out to be 0.71 ± 0.11. Also, the “Persistent Current” value under setting [2] is reported as “No”.

Compound `NCCc1cccc(O)c1` [4-des-OH DA (4), 2-(3-Hydroxyphenyl)-1-aminoethane] returned a Hill coefficients under setting [1] of 1.07 ±0.09. Further, the “Persistent Current” value by setting is: under setting [2], “No”; (ability to generate a persistent current at 10 μM and −60 mV, listed as 4-des-OH DA) “no pronounced persistent current”.

Regarding `COc1cccc(CCN)c1` [compound 9, 2-(3-methoxyphenyl)-1-aminoethane], under “10 μM”, the Depolarizing current result is recorded as “comparatively small depolarizing currents”.

With `Br.C[C@@H](N)Cc1ccc(O)c(O)c1` [R(−) α-Me DA (R7), R(−)-1-(3,4-Dihydroxyphenyl)-2-aminopropane hydrobromide], the Hill coefficients under setting [1] is 0.55 ± 0.06. Also, the “Persistent Current” value under setting [2] is on record as “No”.

Regarding `NCCc1ccccc1` [β-PEA (5), 2-phenyl-1-aminoethane, reference compound], the Persistent Current entry reads like this: (100 μM, −60 mV) “pronounced persistent current”; under setting [2], “Yes”. Under setting [1], this compound gave a Hill coefficients of 1.06 ± 0.16. In addition, the “Relative persistent current” value (−60 mV) is on record as “much lower persistent current than S(+)AMPH (S1)”.

A word on the EC50: it is the concentration needed to bring the measured effect to its halfway point. Lower therefore signals greater potency.
